Measured values as given in patent publication US20260137807A1, “COMPOSITIONS AND METHODS FOR DELIVERING A MACROMOLECULE TO A CELL” (AstraZeneca AB, priority 2022, published 2026).

How the values were obtained:
Format in all cases: cell-based
HeLa mCherry-Gal9 cells = test: mCherry-GAL9 recruitment assay; details: for quantitation of Gal9 recruitment over time / window in concentration between induction of endosomal rupture and cytotoxicity: HeLa; for quantitation of Gal9 recruitment over time: FIG. 8; for relocalisation of Gal9 from cytosolic to punctate: 10-point dose titration, 2 hours, FIG. 3; for window in concentration between induction of endosomal rupture and cytotoxicity: FIG. 5
Text: (§1) All compounds were subjected to a mCherry-GAL9 recruitment assay. Under normal conditions, mCherry-GAL9 is homogenously dispersed in the cytosol. When an endosomal leakage event is detected, mCherry-GAL9 translocates to the damaged endosome (Du Rietz et al. (2020) Nat. Commun. 11:1809) The resulting localization pattern of discrete puncta can be visualized and quantitated.
(§2) HeLa and Huh7 cell lines stably expressing mCherry-GAL9 were generated as described by (bioRxiv) (Munson, M. et al. (2021) Communications Biology, 4(211): 1-14) and seeded into 384-well CellCarrier Ultra plates (PerkinElmer: 6007558) at 3000 or 3500 cells/well respectively, 16 h before experimental usage.
(§3) Dose-response curves of select compounds were generated using an Echo 655T acoustic dispenser (Labcyte) to dispense the indicated compounds into source plates (Greiner: 781280) containing growth media. At experimental start points, media containing appropriate compounds and doses was transferred to plates using a liquid handling robot (Agilent Bravo).
(§4) At assay endpoints, cells were washed 2× PBS at RT and fixed in 4% PFA (VWR: 9713.1000) for 15 mins/RT. Cells were washed a further 3× PBS before the addition of PBS+1 μg/ml Hoechst 33342 (ThermoFisher Scientific: H21492) for a minimum of 1 h before imaging.
(§5) Plates were imaged using a spinning-disk confocal microscope (Yokogawa: CV7000) with a 20× objective (NA 0.75). Images were processed utilizing Columbus image-analysis software (PerkinElmer: v2.9.0) to identify and quantify cells and mCherry-GAL9 structures. The resulting data were processed and normalized in Spotfire (Tibco: v10.3) and plotted in Prism (Graphpad: v8.0.1). Image panels were assembled using the FigureJ plugin for FIJI. (Mutterer and Zinck (2013) J. Microsc. 252(1):89-91).
(§6) Cells were subjected to a 10-point concentration dilution (0-15 μM) for 2 hours and then fixed and imaged (FIG. 3 and FIG. 4). Images were analyzed and curves were generated from both mCherry-GAL9 puncta quantitation and cell survival as determined by nuclear morphology (FIG. 5). The GAL9 recruitment response support the functional splice-switching data with SSOs, confirming the mCherry-GAL9 assay as a powerful tool for screening endosomolytic compounds and supporting the hypothesis that AZ2467 (Compound 6) and AZ4800 (Compound 2) promote SSO activity by inducing endosomal rupture. The GAL9 assay was again conducted, this time in live cells for 4 hours with select compounds for screening. Compounds were screened at 5 μM (FIG. 6-8) or 0.3125-10 μM (FIG. 35-38). FIG. 39 and FIG. 47 provide results for select compounds at various doses 0.3125-10 μM.

Huh7 mCherry-Gal9 cells = test: mCherry-GAL9 recruitment assay; details: for quantitation of Gal9 recruitment over time: Huh7, FIG. 7; for relocalisation of Gal9 from cytosolic to punctate: 10-point dose titration, 2 hours, FIG. 4; for window in concentration between induction of endosomal rupture and cytotoxicity: Huh7, FIG. 5
Text: as §1, §2, §3, §4, §5, §6

mCherry-GAL9 cells = test: mCherry-GAL9 assay in live cells for 4 hours, screening; details: 5 μM (FIG. 6-8)
Method: as §6

HeLa Luc705 cells = test: Splice switching activity assay (Luc705 luciferase reporter), Example 4A
Text: HeLa Luc705 and Huh7 Luc705 cells were used to screen and characterize the SMC generated in Example 2 for their ability to increase levels of an SSO-induced splice variant by co-treatment of the cells with the SSO and SMC. The Luc705 reporter construct was used for quantitation of luciferase protein produced as a result of functional SSO delivery. (Kang et al. (1998) Biochemistry, 37(18):6235-6239; Rocha et al. (2016) Four Novel Splice-Switch Reporter Cell Lines: Distinct Impact of Oligonucleotide Chemistry and Delivery Vector on Biological Activity. Nucleic Acid Ther. 26(6):381). Briefly, a plasmid carrying the luciferase coding sequence interrupted by an insertion of intron 2 from β-globin pre-mRNA carrying a cryptic splice site was stably transfected into cells. Unless the aberrant slice site was masked by an antisense oligonucleotide, the pre-mRNA of luciferase was improperly processed.
HeLa Luc705 and Huh7 Luc705 cells were seeded in 96-well plates at 10,000 cells per well in growth media containing 1 μM Luc705-SSO and incubated to allow adherence and oligo internalization. After 24 hours, 10 μl of SMC diluted in Growth Media (DMEM+10% FBS) was added into each well. After 2 hours, media was removed from the wells and replaced with fresh growth media for 4 hours to allow for translation of the variant proteins. The media was then removed, and cells were lysed with 0.1% Triton-PBS.
To detect luciferase activity, 30 μL of cell lysate was transferred to white-walled 96-well plates. Luciferase intensity in each well was measured using a GloMax® 96 Microplate Luminometer machine (Promega) following auto-injection of 25 μL Luciferin substrate (Firefly Luciferase Assay System: Promega) per well. Photon measurements were acquired for 10 seconds, starting 2 seconds after injection.
To determine whether AZ4800 (Compound 2, FIG. 1B) and SSO must be present in the cell media simultaneously for Compound 2 to produce its synergistic effects, the treatment plan was modified from the UNC2383 treatment plan detailed by Wang et al. (2017) ACS Chem. Biol. 12(8):1999-2007 to include a 24 hour pre-treatment with SSO, followed by the addition of Compound 2 for two hours, followed by the removal of SSO and Compound 2, and finally a 4-hour protein translation period (FIG. 10).

HeLa_Luc705 cells = test: Splice switching activity assay, 24 hr SMC treatment, Examples 4B/4D
Method: (§7) HeLa_Luc705 cells were seeded in 96-well plates at 10,000 cells per well in growth media with 2 μM Luc705-SSO or 1 μM Luc705-SSO. The various SMCs were diluted directly into prepared growth media. After 24 hr to allow adherence and SSO internalization, 10 μl of diluted SMC was added into each well at indicated concentrations. For a positive control, SSOs were complexed with Lipofectamine 2000 for 30 min at RT and cells treated with a final concentration of 200 nM. ON concentrations above 200 nM would require LF2000 to be used in excess of the cells' toxicity threshold. After 24 hr treatment, cells were lysed with 0.1% TritonX-100 (Sigma Aldrich, cat no. X100) in 1× PBS (Gibco, cat no. 10010023).
(§8) For the detection of luciferase activity, 30 μL of cell lysate was transferred to white-walled plates. The luciferase intensity in each well was immediately measured via luminometer following auto-injection of 25 μL Luciferin substrate as per the Promega Firefly Luciferase Assay System. The timing parameters of photon measurements were optimized for this procedure.
(§9) The various SMCs were diluted directly into prepared growth media. After 24 hr to allow adherence and SSO internalization, 10 μl of diluted SMC was added into each well at indicated concentrations. For a positive control, SSOs were complexed with Lipofectamine 2000 for 30 min at RT and cells treated with a final concentration of 200 nM. ON concentrations above 200 nM would require LF2000 to be used in excess of the cells' toxicity threshold. After 24 hr treatment, cells were lysed with 0.1% TritonX-100 (Sigma Aldrich, cat no. X100) in 1× PBS (Gibco, cat no. 10010023).

N2A_Luc705 cells = test: Splice switching activity assay, 24 hr SMC treatment, Examples 4C/4D; details: compounds at 5 μM, 1 μM Luc 705 SSO, FIG. 25B
Method: as §7, with “U2OS_Luc705 and N2A_Luc705” for “HeLa_Luc705”, “with” for “with 2 μM Luc705-SSO or”
as §8, §9

U2OS_Luc705 cells = test: as above; details: compounds at 5 μM, 1 μM Luc 705 SSO, FIG. 25A
Method: as §7, with “U2OS_Luc705 and N2A_Luc705” for “HeLa_Luc705”, “with” for “with 2 μM Luc705-SSO or”
as §8, §9

Compound: COc1ccc2c(-c3nc(Nc4cn(C5CCNCC5)nc4OC)ncc3Cl)c[nH]c2c1 [Compound 5]
- quantitation of Gal9 recruitment over time (HeLa mCherry-Gal9 cells): time-dependent endosomal rupture
- quantitation of Gal9 recruitment over time (Huh7 mCherry-Gal9 cells): time-dependent endosomal rupture
- GAL9 recruitment, reason for selection for further characterization (mCherry-GAL9 cells): efficacy at shorter-term timepoints

Compound: CCOc1nn(C2CCNCC2)cc1Nc1ncc(Cl)c(-c2c[nH]c3ccccc23)n1 [Compound 6]
- increase in functional SSO activity (HeLa Luc705 cells; 5 μM compound, 1 μM SSO or 100 nM SSO, FIG. 2B): increase in activity
- increase in SSO activity (HeLa Luc705 cells; up to 6 hours at 10 μM, FIG. 11B): 200 fold
- relocalisation of Gal9 from cytosolic to punctate (HeLa mCherry-Gal9 cells): dose-dependent manner
- window in concentration between induction of endosomal rupture and cytotoxicity (HeLa mCherry-Gal9 cells): narrow window
- quantitation of Gal9 recruitment over time (HeLa mCherry-Gal9 cells): time-dependent endosomal rupture
- relocalisation of Gal9 from cytosolic to punctate (Huh7 mCherry-Gal9 cells): dose-dependent manner
- window in concentration between induction of endosomal rupture and cytotoxicity (Huh7 mCherry-Gal9 cells): narrow window
- quantitation of Gal9 recruitment over time (Huh7 mCherry-Gal9 cells): time-dependent endosomal rupture
- GAL9 recruitment, reason for selection for further characterization (mCherry-GAL9 cells): efficacy at shorter-term timepoints

Compound: CCOc1nn(C2CCNCC2)cc1Nc1ncc(C(F)(F)F)c(-c2c[nH]c3ccccc23)n1 [Compound 7]
- increase in SSO activity (HeLa_Luc705 cells; 2 μM Luc 705 SSO, FIG. 26): induced an increase in SSO activity
- increase in SSO activity (HeLa_Luc705 cells; 2 μM SSO, FIG. 23A): increase in SSO activity

Compound: COc1nn(C2CCN(C)CC2)cc1Nc1ncc(F)c(-n2ccc3c(C#N)cccc32)n1 [Compound 8]
- increase in SSO activity relative to oligo only (N2A_Luc705 cells): induced an increase in SSO activity relative to oligo only
- increase in SSO activity relative to oligo only (U2OS_Luc705 cells): induced an increase in SSO activity relative to oligo only
- increase in SSO activity (HeLa_Luc705 cells; 2 μM Luc 705 SSO, FIG. 24): increase in SSO activity
- increase in SSO activity (HeLa_Luc705 cells; 2 μM Luc 705 SSO, FIG. 26): induced an increase in SSO activity
- GAL9 response, rank among exemplified compounds (HeLa mCherry-Gal9 cells; doses 1.25-5 μM, 1, 2, 16 hours, FIG. 34): second most potent
- dose from which GAL9+ remodelling is induced (Huh7 mCherry-Gal9 cells; FIG. 40): ≥ 2.5 µM
- GAL9 response, rank among exemplified compounds (Huh7 mCherry-Gal9 cells; doses 1.25-5 μM, 1, 2, 16 hours, FIG. 33): second most potent

Compound: COc1nn(C2CCNCC2)cc1Nc1ncc(C#N)c(-n2ccc3c(C(F)(F)F)cccc32)n1 [Compound 20]
- increase in SSO activity relative to oligo only (U2OS_Luc705 cells): induced an increase in SSO activity relative to oligo only

Compound: CCOc1nn(C2CCNCC2)cc1Nc1ncc(F)c(-n2ccc3c(C#N)cccc32)n1 [Compound 21]
- increase in SSO activity relative to oligo only (N2A_Luc705 cells): induced an increase in SSO activity relative to oligo only
- increase in SSO activity relative to oligo only (U2OS_Luc705 cells): induced an increase in SSO activity relative to oligo only
- increase in SSO activity (HeLa_Luc705 cells; 2 μM Luc 705 SSO, FIG. 24): increase in SSO activity
- increase in SSO activity (HeLa_Luc705 cells; 2 μM Luc 705 SSO, FIG. 26): induced an increase in SSO activity

Compound: COc1nn(C2CCNCC2)cc1Nc1ncc(F)c(-n2ccc3ccc(C#N)cc32)n1 [Compound 22]
- increase in SSO activity relative to oligo only (N2A_Luc705 cells): induced an increase in SSO activity relative to oligo only
- increase in SSO activity relative to oligo only (U2OS_Luc705 cells): induced an increase in SSO activity relative to oligo only

Compound: COc1nn(C2CCNCC2)cc1Nc1ncc(F)c(-c2c[nH]c3cccc(C)c23)n1 [Compound 25]
- increase in SSO activity relative to oligo only (U2OS_Luc705 cells): induced an increase in SSO activity relative to oligo only

Compound: O=C(Nc1nc2ccccc2n1CCN1CCCC1)c1cc2cc(Cl)ccc2o1 [UNC2383, reference compound]
- relocalisation of Gal9 from cytosolic to punctate (HeLa mCherry-Gal9 cells): dose-dependent manner
- window in concentration between induction of endosomal rupture and cytotoxicity (HeLa mCherry-Gal9 cells): narrow window
- relocalisation of Gal9 from cytosolic to punctate (Huh7 mCherry-Gal9 cells): dose-dependent manner
- window in concentration between induction of endosomal rupture and cytotoxicity (Huh7 mCherry-Gal9 cells): narrow window
- quantitation of Gal9 recruitment over time (Huh7 mCherry-Gal9 cells): time-dependent endosomal rupture
